{
  "source": "patent US20240124428A1",
  "about": "“HETEROCYCLIC INHIBITORS OF PCSK9” (CARDIO THERAPEUTICS PTY LTD, priority 2020, published 2024)",
  "origin": "cited, not measured here",
  "key": {"CYP3A4": {"biological_target": "T1, CYP3A4 (Homo sapiens, UniProt P08684)", "T1 construct": "using human liver microsomes; from tissue; host or cells: human liver microsomes", "T1 sequence (P08684 whole entry)": "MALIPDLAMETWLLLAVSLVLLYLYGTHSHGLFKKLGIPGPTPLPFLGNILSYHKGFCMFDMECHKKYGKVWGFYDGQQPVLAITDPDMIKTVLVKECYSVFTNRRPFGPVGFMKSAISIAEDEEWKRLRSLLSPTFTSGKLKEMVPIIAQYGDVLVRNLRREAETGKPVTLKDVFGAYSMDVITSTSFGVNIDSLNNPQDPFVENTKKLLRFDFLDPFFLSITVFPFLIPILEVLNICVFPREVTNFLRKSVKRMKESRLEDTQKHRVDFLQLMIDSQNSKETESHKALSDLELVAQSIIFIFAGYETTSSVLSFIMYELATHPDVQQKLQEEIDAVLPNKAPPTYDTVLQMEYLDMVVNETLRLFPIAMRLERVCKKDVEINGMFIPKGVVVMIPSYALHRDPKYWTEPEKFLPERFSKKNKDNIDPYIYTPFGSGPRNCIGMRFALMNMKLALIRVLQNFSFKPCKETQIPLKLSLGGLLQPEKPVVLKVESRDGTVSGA", "details": "data from Evison et al. 2020; cited from earlier work"}, "CYP2D6": {"biological_target": "T2, CYP2D6 (Homo sapiens, UniProt P10635)", "T2 construct": "using human liver microsomes; from tissue; host or cells: human liver microsomes", "T2 sequence (P10635 whole entry)": "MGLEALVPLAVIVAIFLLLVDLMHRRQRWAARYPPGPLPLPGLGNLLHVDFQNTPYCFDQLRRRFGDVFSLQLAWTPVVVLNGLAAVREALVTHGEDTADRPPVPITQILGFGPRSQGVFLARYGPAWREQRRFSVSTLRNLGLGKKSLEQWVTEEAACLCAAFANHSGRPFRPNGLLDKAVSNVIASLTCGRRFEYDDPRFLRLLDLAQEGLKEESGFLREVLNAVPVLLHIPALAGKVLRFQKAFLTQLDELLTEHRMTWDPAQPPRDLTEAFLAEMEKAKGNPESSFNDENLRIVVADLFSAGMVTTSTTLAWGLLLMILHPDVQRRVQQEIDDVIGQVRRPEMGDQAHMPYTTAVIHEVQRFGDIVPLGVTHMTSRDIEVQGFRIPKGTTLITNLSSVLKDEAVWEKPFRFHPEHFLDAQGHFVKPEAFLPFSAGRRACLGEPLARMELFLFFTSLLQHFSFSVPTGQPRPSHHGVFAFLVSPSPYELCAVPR", "details": "data from Evison et al. 2020; cited from earlier work"}, "HepG2 cells": {"tested_on": "HepG2 cells", "details": "data from Evison et al. 2020; read-out: HepG2 cytotoxicity IC50; cited from earlier work"}, "[1]": {"details": "data from Evison et al. 2020; conditions not given; cited from earlier work"}, "hERG channel": {"biological_target": "T3, hERG channel (Homo sapiens, UniProt Q12809)", "T3 construct": "expressed in transfected cells; host or cells: CHO", "T3 sequence (Q12809 whole entry)": "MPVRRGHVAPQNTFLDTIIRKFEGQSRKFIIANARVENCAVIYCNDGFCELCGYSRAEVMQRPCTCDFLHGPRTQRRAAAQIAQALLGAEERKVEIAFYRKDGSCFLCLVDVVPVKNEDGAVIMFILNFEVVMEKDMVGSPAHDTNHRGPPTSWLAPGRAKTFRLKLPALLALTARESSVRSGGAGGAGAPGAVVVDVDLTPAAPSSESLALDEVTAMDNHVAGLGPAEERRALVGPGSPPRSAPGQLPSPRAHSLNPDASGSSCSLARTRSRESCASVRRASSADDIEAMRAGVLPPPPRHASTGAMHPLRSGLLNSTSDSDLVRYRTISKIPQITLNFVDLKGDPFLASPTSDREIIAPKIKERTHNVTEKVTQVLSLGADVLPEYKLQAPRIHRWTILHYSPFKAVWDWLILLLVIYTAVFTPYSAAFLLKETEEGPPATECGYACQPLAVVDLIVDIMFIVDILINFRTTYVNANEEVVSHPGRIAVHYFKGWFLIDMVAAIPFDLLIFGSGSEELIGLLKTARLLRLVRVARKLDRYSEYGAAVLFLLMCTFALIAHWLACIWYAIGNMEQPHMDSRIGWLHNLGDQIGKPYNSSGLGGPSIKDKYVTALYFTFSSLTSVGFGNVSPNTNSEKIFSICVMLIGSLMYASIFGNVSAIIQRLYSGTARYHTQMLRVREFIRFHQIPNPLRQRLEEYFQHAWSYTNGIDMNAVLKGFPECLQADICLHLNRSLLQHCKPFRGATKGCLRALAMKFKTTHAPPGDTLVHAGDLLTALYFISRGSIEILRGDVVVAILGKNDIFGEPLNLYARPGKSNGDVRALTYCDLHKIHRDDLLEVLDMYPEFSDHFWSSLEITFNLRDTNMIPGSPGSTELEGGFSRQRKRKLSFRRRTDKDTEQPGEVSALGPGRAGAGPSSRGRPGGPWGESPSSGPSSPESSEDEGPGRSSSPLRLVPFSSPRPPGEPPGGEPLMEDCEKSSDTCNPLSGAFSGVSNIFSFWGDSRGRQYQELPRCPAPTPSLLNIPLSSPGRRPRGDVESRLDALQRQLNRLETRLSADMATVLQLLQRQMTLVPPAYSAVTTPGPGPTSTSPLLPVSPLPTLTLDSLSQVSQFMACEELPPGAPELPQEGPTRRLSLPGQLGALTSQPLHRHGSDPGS", "details": "data from Evison et al. 2020; cited from earlier work"}, "[2]": {"biological_target": "T4, binding between PCSK9 and the LDL receptor (Homo sapiens, UniProt Q8NBP7)", "T4 construct": "purchased CircuLex", "T4 sequence (Q8NBP7 153-692)": "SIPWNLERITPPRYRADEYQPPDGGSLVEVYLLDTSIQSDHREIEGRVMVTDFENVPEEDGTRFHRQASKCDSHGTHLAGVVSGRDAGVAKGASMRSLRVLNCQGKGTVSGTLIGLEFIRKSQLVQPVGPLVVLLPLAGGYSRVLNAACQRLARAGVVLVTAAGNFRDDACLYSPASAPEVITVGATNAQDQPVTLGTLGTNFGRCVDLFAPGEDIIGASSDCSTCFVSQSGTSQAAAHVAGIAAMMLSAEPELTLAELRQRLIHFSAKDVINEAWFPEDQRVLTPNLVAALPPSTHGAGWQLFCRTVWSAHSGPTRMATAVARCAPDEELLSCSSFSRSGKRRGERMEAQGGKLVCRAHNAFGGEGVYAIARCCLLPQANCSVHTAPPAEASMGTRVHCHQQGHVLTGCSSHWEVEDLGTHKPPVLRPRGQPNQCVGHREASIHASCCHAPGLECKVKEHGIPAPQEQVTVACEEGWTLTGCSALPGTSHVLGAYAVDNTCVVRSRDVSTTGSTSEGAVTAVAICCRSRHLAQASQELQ", "T4 sequence (Q8NBP7 31-152 partner limits assumed)": "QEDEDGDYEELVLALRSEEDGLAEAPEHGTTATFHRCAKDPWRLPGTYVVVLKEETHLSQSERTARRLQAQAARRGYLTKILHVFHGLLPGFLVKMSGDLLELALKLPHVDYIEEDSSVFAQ", "details": "comparator; data from Evison et al. 2020; read-out: PCSK9-LDLR binding assay IC50; cited from earlier work"}},
  "note": "Marks after values point to notes of the source that are not given here.",
  "data": [
    {"compound": "Cc1cn(-c2cc(CN3CCC[C@H](N)C3)cc(NC(=O)c3ccc(C)c(Oc4ccccc4)c3)c2)cn1", "note": "[3f]", "values": [
      {"measurement": "CYP3A4 (% inhibition at 10 μM)", "setting": "CYP3A4", "result": 95.0, "unit": "%"},
      {"measurement": "CYP2D6 (% inhibition at 10 μM)", "setting": "CYP2D6", "result": 82.2, "unit": "%"},
      {"measurement": "IC50", "setting": "HepG2 cells", "result": 5.23, "unit": "µM"},
      {"measurement": "AUClast (h*ng/ml)", "setting": "[1]", "result": "92.3** h*ng/ml"},
      {"measurement": "Bioavailability (%)", "setting": "[1]", "result": "0.5** %"},
      {"measurement": "CMax (ng/ml)", "setting": "[1]", "result": "52.5** ng/ml"},
      {"measurement": "VSS (L/kg)", "setting": "[1]", "result": "3.87** L/kg"},
      {"measurement": "IC50", "setting": "hERG channel", "result": 19, "unit": "µM"},
      {"measurement": "IC50", "setting": "[2]", "result": 0.939, "unit": "µM"}
    ]}
  ]
}
